Source: patent US20230014445A1, “ALLOSTERIC CHROMENONE INHIBITORS OF PHOSPHOINOSITIDE 3-KINASE (PI3K) FOR THE TREATMENT OF DISEASE” (Petra Pharma Corporation, priority 2021, published 2023)
pIC50: −log10 of the molar value. Like-named read-outs stand apart in the source and are kept apart here.

Assays:
[1] = biological target: T1, human full length PIK3KA H1047R mutant (p110α/p85α complex) (Homo sapiens, UniProt P42336, H1047R); test: PI3K-Alpha Kinase (PIK3CA) biochemical activity, H1047R mutant (ADP-Glo); settings: Soy PI lipid substrate, 20 uM ATP
T1 construct: Recombinant, catalytically active human full length PIK3KA Wild-type and H1047R mutant were purchased; 6xHis (N); purchased EMD Millipore Sigma 14-792M
Summary of the method: (§1)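 ADP formation, measured by ADP-Glo luminescence after reaction to about 10% ATP conversion at 27° C., gives 10-point 4-parameter IC50 curves normalized to no-enzyme and DMSO controls. Lipid substrate was PIP2diC8 or Soy PI at 50 uM, with 20 uM ATP. WT or H1047R p110α/p85α complex (1-5 nM) was preincubated 1 h with compound.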

[2] = biological target: T2, human full length PIK3KA Wild-type (p110α/p85α complex) (Homo sapiens, UniProt P42336); test: PI3K-Alpha Kinase (PIK3CA) biochemical activity, wild-type (ADP-Glo); settings: Soy PI lipid substrate, 20 uM ATP
T2 construct: Recombinant, catalytically active human full length PIK3KA Wild-type and H1047R mutant were purchased; 6xHis (N); purchased EMD Millipore Sigma 14-602M
Summary of the method: as §1

[3] = biological target: PI3K-α (PIK3CA) in MDA-MB-453 cells (Homo sapiens, UniProt P42336); test: PI3K-Alpha Kinase (PIK3CA) activity in vitro cell based assay (AlphaLisa SureFire)
Experimental: PI3K-Alpha Kinase (PIK3CA) Activity In Vitro Cell Based Assay and Determining IC50 Values for Inhibitors
The MDA-MB-453 (ATCC-HTB-131) cell line was obtained from the American Type Culture Collection (Manassas, Va.). Cells were maintained in Dulbecco's Modified Eagle Media (DMVEM, Gibco 11965-092) supplemented with 10% Fetal Bovine Serum, heat inactivated (FBS HI, Gibco 10082-147), 1× non-essential amino acids (NEAA, Gibco 11140-050), and 1 mM sodium pyruvate (Gibco 11360-070). Cultures were maintained in a humidified incubator at 37° C. under […].
For compound testing in 0% FBS, MDA-MB-453 cells were seeded at a density of 1.5×10^4 cells per well in white 384-well plates in 20 μl of Minimum Essential Media (MEM) assay media with 1×NEAA, 1 mM sodium pyruvate, and 1 μg/mL human insulin (Sigma I9278). Compounds dissolved in 10 mM stock solutions in DMSO were serially diluted 1:3 in DMSO to generate a 10-point dilution series and plated using an acoustic liquid handler system (Echo 550 Series Liquid Handler, Labcyte). A 5× intermediate compound dilution plate in MEM with 1×NEAA and 1 mM sodium pyruvate (150 μM starting compound concentration in 1.5% DMSO) was then prepared. Five μl of the intermediate serially diluted compounds were added to the cell plate to final concentrations ranging from […] in 0.3% DMSO. 0.3% DMSO alone was used to establish the maximum (MAX) signal and GDC-0032 at a final concentration of 1 μM was used as a reference compound for the minimum (MIN) signal. After 3 hours treatment, the medium was removed, and the cells lysed in 10 μL of 1× SureFire Lysis buffer with shaking for 10 minutes at room temperature. The Acceptor Mix (Reaction Buffer 1+Reaction Buffer 2+Activation Buffer+SureFire Ultra Acceptor Beads) was prepared by diluting Activation buffer 25-fold in combined Reaction Buffer 1 and Reaction Buffer 2. The Acceptor beads were diluted 50-fold in the combined Reaction Buffers. Five μL of Acceptor Mix was added to each well, the plate was sealed and covered with foil and incubated for 1 hour at room temperature. The Donor Mix (dilution buffer+SureFire Ultra Donor Beads) was prepared by diluting Donor Beads 50-fold in dilution buffer. Five μL of the Donor Mix was added to each well and the plate sealed and covered with foil and incubated for 1 hour at room temperature in the dark. The plates were read on a Neo2 plate reader instrument from Biotek using standard AlphaLisa settings.
Compounds were tested in duplicate and the average % inhibition at each compound concentration was used to generate a single dose response curve. The data were processed using the Genedata-Screener tool. Relative IC50 values were determined using luminescence units by calculating percent inhibition with respect to the in-plate “MIN” (GDC-0032 reference control) and “MAX” (DMSO) controls. The data was analyzed using a 4-parameter nonlinear logistic equation (four-parameter logistic concentration-response curve):
Y=bottom+[(top−bottom)/1+(X/IC50)slope]
where Y=% inhibition, X=concentration of inhibitor, bottom=minimum value of y attained by curve-fit, top=maximum value of y attained by curve-fit and slope=steepness of curve at the IC50.
% Inhibition=[(signal at X−median Min)/(median Max−median Min)]×100
IC50: concentration of compound that reduces a given response (ligand binding, enzyme response) by 50%. Relative IC50: concentration giving half the compound's maximum response.
For IC50 values shown in Table B, “A” means IC50<50 nM; “B” means IC50 ranging between 50 nM and 100 nM; “C” means IC50 ranging between 100 nM and 500 nM; “D” means IC50>500 nM.

[4] = 0% FBS, 3 hours treatment, read-out: PI3K-α (PIK3CA) in vitro cell based assay IC50
[5] = read-out: PI3K-α (PIK3CA) in vitro cell based assay IC50, 0% FBS, 3 hours treatment

PI3K-α (PIK3CA) in MDA-MB-453 cells, sequence (P42336 whole entry): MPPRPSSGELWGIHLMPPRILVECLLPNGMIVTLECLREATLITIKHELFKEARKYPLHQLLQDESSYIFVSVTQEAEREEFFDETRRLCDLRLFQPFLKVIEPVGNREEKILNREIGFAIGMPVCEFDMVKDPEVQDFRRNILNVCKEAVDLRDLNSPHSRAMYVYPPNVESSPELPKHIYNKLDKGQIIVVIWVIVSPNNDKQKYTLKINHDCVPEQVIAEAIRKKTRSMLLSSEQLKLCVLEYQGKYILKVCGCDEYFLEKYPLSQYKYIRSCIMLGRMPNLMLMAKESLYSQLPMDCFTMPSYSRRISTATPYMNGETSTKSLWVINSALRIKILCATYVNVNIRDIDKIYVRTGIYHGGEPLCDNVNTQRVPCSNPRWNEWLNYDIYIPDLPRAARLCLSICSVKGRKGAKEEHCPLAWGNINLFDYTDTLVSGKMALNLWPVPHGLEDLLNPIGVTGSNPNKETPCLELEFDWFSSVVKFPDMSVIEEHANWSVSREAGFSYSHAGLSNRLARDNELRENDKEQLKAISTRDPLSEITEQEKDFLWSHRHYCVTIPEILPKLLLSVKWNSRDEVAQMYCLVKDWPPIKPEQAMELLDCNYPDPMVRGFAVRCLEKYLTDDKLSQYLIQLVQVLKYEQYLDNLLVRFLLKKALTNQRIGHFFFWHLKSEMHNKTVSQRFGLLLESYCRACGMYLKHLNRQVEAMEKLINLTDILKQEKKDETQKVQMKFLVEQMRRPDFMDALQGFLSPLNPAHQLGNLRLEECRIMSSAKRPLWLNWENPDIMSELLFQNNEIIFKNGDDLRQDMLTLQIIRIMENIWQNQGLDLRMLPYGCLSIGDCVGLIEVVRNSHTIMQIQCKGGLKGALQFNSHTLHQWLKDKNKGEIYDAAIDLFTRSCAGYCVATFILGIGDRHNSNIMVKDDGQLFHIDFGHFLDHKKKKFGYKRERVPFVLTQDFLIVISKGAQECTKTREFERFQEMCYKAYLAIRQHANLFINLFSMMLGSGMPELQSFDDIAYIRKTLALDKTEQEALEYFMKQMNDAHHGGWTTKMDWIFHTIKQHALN
PI3K-α (PIK3CA) in MDA-MB-453 cells, sequence (P27986 2-724, further chain): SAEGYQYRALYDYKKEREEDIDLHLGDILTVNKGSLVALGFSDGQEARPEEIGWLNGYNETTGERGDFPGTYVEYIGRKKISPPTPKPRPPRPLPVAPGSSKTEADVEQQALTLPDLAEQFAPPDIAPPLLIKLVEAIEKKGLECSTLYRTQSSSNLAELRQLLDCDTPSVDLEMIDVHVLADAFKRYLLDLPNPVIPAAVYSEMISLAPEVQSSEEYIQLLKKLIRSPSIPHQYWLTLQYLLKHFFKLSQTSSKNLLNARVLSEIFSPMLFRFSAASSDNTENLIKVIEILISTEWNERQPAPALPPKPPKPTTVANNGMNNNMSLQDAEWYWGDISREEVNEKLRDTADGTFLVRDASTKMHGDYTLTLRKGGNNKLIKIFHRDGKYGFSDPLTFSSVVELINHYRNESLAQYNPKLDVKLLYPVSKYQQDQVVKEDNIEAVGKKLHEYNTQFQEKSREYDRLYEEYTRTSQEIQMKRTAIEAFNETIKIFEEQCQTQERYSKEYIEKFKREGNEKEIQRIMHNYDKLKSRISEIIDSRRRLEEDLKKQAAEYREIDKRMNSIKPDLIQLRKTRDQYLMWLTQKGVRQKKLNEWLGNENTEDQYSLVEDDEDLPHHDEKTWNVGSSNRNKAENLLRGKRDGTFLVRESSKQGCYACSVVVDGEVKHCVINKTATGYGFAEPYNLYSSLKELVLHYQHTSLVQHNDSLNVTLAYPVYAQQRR
T1 sequence (P42336 whole entry H1047R): as the sequence (P42336 whole entry) above, with H1047R counted along it
T1 sequence (P27986 whole entry partner): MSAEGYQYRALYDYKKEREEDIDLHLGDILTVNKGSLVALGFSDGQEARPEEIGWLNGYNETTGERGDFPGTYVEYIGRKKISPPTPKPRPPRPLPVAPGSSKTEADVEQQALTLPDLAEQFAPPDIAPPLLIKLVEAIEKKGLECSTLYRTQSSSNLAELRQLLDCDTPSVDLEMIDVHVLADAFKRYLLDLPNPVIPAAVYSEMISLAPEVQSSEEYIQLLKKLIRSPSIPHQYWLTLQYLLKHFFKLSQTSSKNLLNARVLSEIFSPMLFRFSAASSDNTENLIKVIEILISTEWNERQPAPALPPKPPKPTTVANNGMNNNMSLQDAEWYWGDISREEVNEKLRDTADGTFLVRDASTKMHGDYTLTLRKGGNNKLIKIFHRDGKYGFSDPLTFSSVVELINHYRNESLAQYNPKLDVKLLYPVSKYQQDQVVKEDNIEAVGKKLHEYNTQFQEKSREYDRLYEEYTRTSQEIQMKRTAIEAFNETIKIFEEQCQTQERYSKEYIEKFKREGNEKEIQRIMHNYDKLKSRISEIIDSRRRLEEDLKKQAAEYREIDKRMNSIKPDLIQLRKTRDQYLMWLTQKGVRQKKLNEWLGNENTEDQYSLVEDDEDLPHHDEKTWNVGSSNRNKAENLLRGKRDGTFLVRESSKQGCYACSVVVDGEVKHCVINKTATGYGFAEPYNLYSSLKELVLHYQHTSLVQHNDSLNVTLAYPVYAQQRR

Row | pIC50 [1] | pIC50 [2] | pIC50 [3, 4] | SMILES | pIC50 [3, 5]
1 | > 6.30 | 5.30 to 6.00 | 6.30 to 7.00 | COc1cccc(-c2nnc(-c3cc(=O)c4cc(C)cc(C(C)Nc5ccccc5C(=O)O)c4o3)o2)c1 (single isomer, unassigned; isomer 2) [Example 84, 2-[1-[2-[5-(3-Methoxyphenyl)-1,3,4-oxadiazol-2-yl]-6-methyl-4-oxo-chromen-8-yl]ethylamino]benzoic acid, Isomer 2] | –
2 | > 6.30 | 5.30 to 6.00 | 6.30 to 7.00 | Cc1cc(C(C)Nc2cccc(F)c2C(=O)O)c2oc(-c3ccccn3)cc(=O)c2c1 (single isomer, unassigned; isomer 1) [Example 110, 2-Fluoro-6-[1-[6-methyl-4-oxo-2-(2-pyridyl)chromen-8-yl]ethylamino]benzoic acid, Isomer 1] | –
3 | – | – | > 7.30 | Cc1cc(C(C)Nc2ccc(Cl)nc2C(=O)O)c2oc(-c3cncc(F)c3)c(C)c(=O)c2c1 (single isomer, unassigned; isomer 1) [Example 138, 6-Chloro-3-[1-[2-(5-fluoro-3-pyridyl)-3,6-dimethyl-4-oxo-chromen-8-yl]ethylamino]pyridine-2-carboxylic acid, Isomer 1] | –
4 | – | – | 7.00 to 7.30 | Cc1cc(C(C)Nc2cccc(F)c2C(=O)O)c2oc(-c3ccccn3)c(C)c(=O)c2c1 (single isomer, unassigned; isomer 1) [Example 140, 2-[1-[3,6-Dimethyl-4-oxo-2-(2-pyridyl)chromen-8-yl]ethylamino]-6-fluoro-benzoic acid, Isomer 1] | –
5 | > 6.30 | 5.00 to 5.30 | – | CC(Nc1ccc(Cl)nc1C(=O)O)c1cc(C(F)(F)F)cc2c(=O)cc(-c3ccccn3)oc12 (single isomer, unassigned; isomer 1) [Example 62, 6-Chloro-3-[1-[4-oxo-2-(2-pyridyl)-6-(trifluoromethyl)chromen-8-yl]ethylamino]pyridine-2-carboxylic acid, Isomer 1] | –
6 | 6.00 to 6.30 | 5.00 to 5.30 | – | Cc1cc(C(C)Nc2ccccc2C(=O)O)c2oc(-c3cnc(C#CC(C)(C)O)nc3)cc(=O)c2c1 (single isomer, unassigned) [Example 102, 2-[1-[2-[2-(3-Hydroxy-3-methyl-but-1-ynyl)pyrimidin-5-yl]-6-methyl-4-oxo-chromen-8-yl]ethylamino]benzoic acid, Isomer 2,2,2,2-trifluoroacetic acid] | –
7 | > 6.30 | 5.30 to 6.00 | – | Cc1cc(C(C)Nc2ccc(Cl)nc2C(=O)O)c2oc(-c3ccccn3)cc(=O)c2c1 (single isomer, unassigned; isomer 1) [Example 27, 6-Chloro-3-[1-[6-methyl-4-oxo-2-(2-pyridyl)chromen-8-yl]ethylamino]pyridine-2-carboxylic acid, Isomer 1] | –
8 | > 6.30 | 5.00 to 5.30 | – | Cc1cc(C(C)Nc2ccccc2C(=O)O)c2oc(-n3cccn3)cc(=O)c2c1 (single isomer, unassigned) [Example 58, 2-[1-(6-Methyl-4-oxo-2-pyrazol-1-yl-chromen-8-yl)ethylamino]benzoic acid, Isomer 2,2,2,2-trifluoroacetic acid] | –

More lines, now with the values behind:

Row | SMILES | pIC50 [1] | pIC50 [2] | pIC50 [3, 4] | pIC50 [3, 5]
9 | Cc1cc(C(C)Nc2ccccc2C(=O)O)c2oc(-c3cnn(C)c3)c(C)c(=O)c2c1 (single isomer, unassigned; isomer 1) [Example 136, 2-[1-[3,6-Dimethyl-2-(1-methylpyrazol-4-yl)-4-oxo-chromen-8-yl]ethylamino]benzoic acid, Isomer 1] | – | – | > 7.30 | –
10 | COc1ccc(-n2cc(-c3cc(=O)c4cc(C)cc(C(C)Nc5ccccc5C(=O)O)c4o3)nn2)cc1OC (single isomer, unassigned) [Example 133, 2-[1-[2-[1-(3,4-Dimethoxyphenyl)triazol-4-yl]-6-methyl-4-oxo-chromen-8-yl]ethylamino]benzoic acid, Isomer 2,2,2,2-trifluoroacetic acid] | – | – | – | 6.30 to 7.00
11 | Cc1cc(C(C)Nc2cccnc2C(=O)O)c2oc(-c3cccc(C(F)F)n3)c(C)c(=O)c2c1 (single isomer, unassigned; isomer 1) [Example 139, 3-[1-[2-[6-(Difluoromethyl)-2-pyridyl]-3,6-dimethyl-4-oxo-chromen-8-yl]ethylamino]pyridine-2-carboxylic acid; 2,2,2-trifluoroacetic acid, Isomer 1] | – | – | – | 6.30 to 7.00
12 | Cc1cc(C(C)Nc2ccc(Cl)nc2C(=O)O)c2oc(-c3cccc(C(F)F)n3)c(C)c(=O)c2c1 (single isomer, unassigned; isomer 1) [Example 141, 6-Chloro-3-[1-[2-[6-(difluoromethyl)-2-pyridyl]-3,6-dimethyl-4-oxo-chromen-8-yl]ethylamino]pyridine-2-carboxylic acid, Isomer 1] | – | – | > 7.30 | –
13 | COc1ccc(-n2nncc2-c2cc(=O)c3cc(C)cc(C(C)Nc4ccccc4C(=O)O)c3o2)cc1OC (single isomer, unassigned) [Example 134, 2-[1-[2-[3-(3,4-Dimethoxyphenyl)triazol-4-yl]-6-methyl-4-oxo-chromen-8-yl]ethylamino]benzoic acid, Isomer 2,2,2,2-trifluoroacetic acid] | – | – | – | < 6.30
14 | Cc1cc(C(C)Nc2cccc(F)c2C(=O)O)c2oc(-c3cnn(-c4ccc(C#N)cc4)c3)cc(=O)c2c1 (stereo not shown) [Example 101, 2-[1-[2-[1-(4-Cyanophenyl)pyrazol-4-yl]-6-methyl-4-oxo-chromen-8-yl]ethylamino]-6-fluoro-benzoic acid 2,2,2-trifluoroacetic acid] | > 6.30 | 6.00 to 6.30 | – | –
15 | COc1cccc(-n2cc(-c3cc(=O)c4cc(C)cc(C(C)Nc5ccccc5C(=O)O)c4o3)nn2)c1 (single isomer, unassigned; isomer 2) [Example 98, 2-[1-2-[1-(3-Methoxyphenyl)triazol-4-yl]-6-methyl-4-oxo-chromen-8-yl]ethylamino]benzoic acid, Isomer 2] | > 6.30 | 5.30 to 6.00 | – | –
16 | COC(=O)c1ccccc1NC(C)c1cc(C)cc2c(=O)cc(-c3c[nH]c(=O)cn3)oc12 (single isomer, unassigned; isomer 2) [Example 56, Methyl 2-[1-[6-methyl-4-oxo-2-(6-oxo-1H-pyrazin-3-yl)chromen-8-yl]ethylamino]benzoate, Isomer 2] | 5.30 to 6.00 | < 5.00 | – | –
17 | Cc1cc(C(C)Nc2ccccc2C(=O)O)c2oc(-c3cn(-c4ccc(C#N)cc4)cn3)cc(=O)c2c1 (single isomer, unassigned) [Example 103, 2-[1-[2-[1-(4-Cyanophenyl)imidazol-4-yl]-6-methyl-4-oxo-chromen-8-yl]ethylamino]benzoic acid, Isomer 2,2,2,2-trifluoroacetic acid] | > 6.30 | 5.00 to 5.30 | – | –
18 | Cc1cc(C(C)Nc2ccccc2C(=O)O)c2oc(-c3ccc(F)cn3)cc(=O)c2c1 (stereo not shown) [Example 23, 2-[1-[2-(5-Fluoro-2-pyridyl)-6-methyl-4-oxo-chromen-8-yl]ethylamino]benzoic acid 2,2,2-trifluoroacetic acid] | > 6.30 | 5.00 to 5.30 | – | –
